Measured values as given in patent US8957087B2, “Heterocyclic substituted acardite derivate and application thereof” (Jiangsu Provincial Institute of Materia Medica Co., Ltd., priority 2009, dated 2015).
Read-outs that look alike come from different tables or passages of the source. Marks after values point to notes of the source that are not given here.

Experiments:
lung cancer cell A549 = experiment: Effects on the adhesive ability of lung cancer cell A549; assay type: cell-based, human; conditions: Final concentration 1 x 1.0*10^(−5) mol/L
Summary of the method: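 A549 cells in 1640 medium with 10% FBS tested for adhesion to gelatin versus poly-lysine (PLL), with CCK8 used as read-out. Inhibition rate derived from the gelatin/PLL adhesion OD ratio of dosed cells relative to the undosed cell group.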

[1] = test system: human umbilical vein endothelial cell HUVEC; experiment: Lumen formation ability of HUVEC (Matrigel method); assay type: cell-based; conditions: Final concentration 1 x 1.0*10^(−5) mol/L
Summary of the method: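 HUVEC at passage 3–5, cultured in M199 at 37° C under 5% CO2, were plated on Matrigel with compound. Spontaneous lumen formation was scored as an inhibition rate.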

[2] = test system: human liver cancer cell bel-7402 transplantation tumor; assay type: in vivo; conditions: 60 mg/kg, 6 times every week for 3 weeks; for Relative tumor reproduction rate T/C (%) on human liver cancer cell bel-7402 transplantation tumor model in nude mice: BALB/cA nude mice, Sorafenib oral 60 mg/kg
Summary of the method: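 Female BALB/cA nude mice (35–40 days, 18–22 g) bearing Bel-7402 xenografts; 6 mice per treated group, 12 in saline controls. Compound dosed at 60 mg/kg, 6 times weekly for 3 weeks, followed by one week of observation; tumor inhibition rate scored against controls.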

mice S180 sarcoma [3] = conditions: mouse, in vivo, 60 mg/kg
Protocol: (§1) Experimental therapeutic action of the compound in the present invention on S180 sarcoma mice
(§2) 18-25 g female ICR mice and well grown 7-11 day old mice sarcoma S180 tumor seeds were selected, and the seeds were inoculated into the subcutaneous at the right axillary. After inoculated 24 hours, these mice were randomly divided into cages and orally administrated 60 mg/kg for 9 days. On 10 day, the animals were killed and weighed, and the tumor weights were weighed to calculate average tumor weight in each group, followed by calculating the tumor inhibition rate according to the following formula and T test.

mice S180 sarcoma [4] = experiment: Experimental therapeutic action on S180 sarcoma mice; conditions: for Tumor weight x ± SD: day 10; for Tumor growth inhibition rate (%): mice S180 sarcoma, 60 mg/kg orally for 9 days
Protocol: as §1, §2

[5] = test system: human umbilical vein endothelial cell HUVEC; experiment: Growth of human umbilical vein endothelial cell HUVEC by CCK8 method; assay type: cell-based; conditions: Final concentration 1 x 1.0*10^(−5) mol/L
Summary of the method: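 HUVEC cells were grown in 1640 medium with 10% FBS, and growth was measured by the CCK8 method. OD values of drug and control wells were corrected by subtracting the blank-well OD.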

[6] = test system: Human colon cancer HT-29 transplantable tumor; experiment: Human colon cancer HT-29 transplantable tumor in nude mice; conditions: for Relative tumor reproduction rate T/C (%): HT-29 in nude mice; for Relative tumor reproduction rate T/C (%) / RTV: 60 mg/kg ig 9 times; for RTV: relative tumor volume; for TV d0: tumor volume d0, 60 mg/kg; for TV d13: tumor volume d13, 60 mg/kg ig 9 times; for Weight (g) d0: nude mouse body weight d0, 60 mg/kg; for Weight (g) d13: nude mouse body weight d13, 60 mg/kg ig 9 times
Protocol: Experimental therapeutic action of the compound in the present invention on Human colon cancer HT-29 transplantable tumor in nude mice.
Take eugenic tumor tissues and cut into about 1.5 mm^3, and then incoculate subcutaneously at the right armpit of nude mice under the sterile conditions. The diameter of the transplantable tumor in nude mice was determined with a vernier caliper, and the animals were divided into groups after the tumors were grown to 100-300 mm^3. Using the method of measuring the tumor diameter, dynamically observe the antitumor effects of tested materials. The diameter of the tumor was determined three times every week and the mouse weight was weighed at the same time. […] The solvent was intragastrically administrated as the control for continuous 9 times. Equal amount of control was administrated in the negative control group.
Tumor volume (TV) is calculated as: TV=½×a×b^2, wherein a and b respectively represent length and width.
Relative tumor volume (RTV) is calculated as: RTV=TVt/TV0, wherein TV0 is the tumor volume when administrated according to different cages and TVt is the tumor volume measured each time.
Relative tumor reproduction rate T/C (%) is calculated as follows:
TRTV: RTV in the treatment group; CRTV: RTV in the negative control group.
The test results used relative tumor reproduction rate T/C (%) as evaluating indicator of anti-tumor activity.

[7] = test system: human high-metastic lung cancer cell 95D; experiment: Inhibition of human high-metastic lung cancer cell 95D migration (Boyden Chamber Transwell); assay type: cell-based; conditions: Final concentration 1 x 1.0*10^(−5) mol/L
Summary of the method: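 Boyden Transwell migration (8 μm pores) of 95D cells, RPMI-1640 with 10% FBS versus serum-free medium; inhibition rate calculated.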

[8] = test system: renal carcinoma cell line GCR-1 transplanted tumor; assay type: in vivo, BALB/cA nude mice; conditions: 60 mg/kg, 6 times every week for 3 weeks; for Relative tumor reproduction rate T/C (%) on human renal carcinoma GCR-1 cell transplanted tumor model in nude mice: BALB/cA nude mice, Sorafenib oral 60 mg/kg
Summary of the method: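 Female BALB/cA nude mice (18–22 g) bearing GCR-1 renal carcinoma xenografts, 6 per treated group, 12 saline controls. Drug given at 60 mg/kg, 6 times weekly for 3 weeks, then one week of observation; tumor inhibition rate reported.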

[9] = test system: human lung cancer A549 transplantation tumor; assay type: in vivo; conditions: 60 mg/kg, 6 times every week for 3 weeks; for Relative tumor reproduction rate T/C (%) on human lung cancer A549 transplantation tumor in nude mice: BALB/cA nude mice, Sorafenib oral 60 mg/kg
Summary of the method: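 Female BALB/cA nude mice, 35-40 days old, bearing A549 human lung cancer transplants; 6 per treatment group, 12 saline controls. Compound given at 60 mg/kg, 6 times weekly for 3 weeks, then observed one week.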

[10] = test system: human lung cancer cell strain A549; experiment: MTT assay, inhibition of growth of human lung cancer cell strain A549; assay type: cell-based
Summary of the method: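 A549 cells grown in F12 with 10% FBS; growth read by MTT, inhibition rate from blank-corrected OD of drug wells versus control wells.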

Raf-1(truncated) = experiment: Raf-1 inhibitor screening by chemoluminescence method; assay type: biochemical; conditions: Final concentration 1 x 1.0*10^−5 mol/ml
Source text: 1. Inhibitory activity of the compound of the present invention on raf kinase
Raf-1 inhibitor screening by chemoluminescence method
Westernblot electrophoresis apparatus Rotaryshaker
Raf-1(truncated), Magnesium/ATP Cocktail, MEK1 unactive

[11] = Final concentration 1 x 1.0*10^(−5) mol/L

Row | Molecule | Inhibition rate, adhesion ability of human lung cancer cell A549 (lung cancer cell A549) | Inhibition rate, lumen formation ability of HUVEC [1] | Relative tumor reproduction rate T/C (%) on human liver cancer cell bel-7402 transplantation tumor model in nude mice [2] | Tumor weight x ± SD (mice S180 sarcoma [4]; 60 mg/kg ig for 9 days) | Tumor growth inhibition rate (%) (mice S180 sarcoma [4]) | Inhibition rate, growth of HUVEC cell [5] | RTV [6] | TV d0 [6] | TV d13 [6] | Inhibition rate, 95D cell strain migration [7] | Relative tumor reproduction rate T/C (%) on human renal carcinoma GCR-1 cell transplanted tumor model in nude mice [8] | Relative tumor reproduction rate T/C (%) on human lung cancer A549 transplantation tumor in nude mice [9] | Inhibition rate, growth of human lung cancer cell A549 [10, 11] | Inhibition rate % on raf kinase (Raf-1(truncated)) | Relative tumor reproduction rate T/C (%) [6] | Inhibition rate, growth of human lung cancer cell A549 [10] | also measured
1 | CNC(=O)c1cc(Oc2ccc(NC(=O)Nc3ccc(Br)c(C(F)(F)F)c3)cc2)c2cc(OC)ccc2n1 [Compound 3] | 79.66% | 76.61% | 30.1% | 0.75 ± 0.36 g | 53.4% | 27.67% | 2.40 ± 0.67 | 133 ± 18 | 322 ± 129 | 96.64% | 31.3% | 37.2% | 69.67% | 56.3% | – | – | Weight (g) Start (mice S180 sarcoma [3]): 18.0 ± 1.1 g; Relative tumor reproduction rate T/C (%) ([6]; 60 mg/kg): 47.34%
2 | CCCNC(=O)c1cc(Oc2ccc(NC(=O)Nc3ccc(Cl)c(OC)c3)c(F)c2)c2ccc(C(F)(F)F)cc2n1 [Compound 37] | 71.74% | 71.72% | 36.3% | – | 24.1% | 19.65% | – | – | – | 79.25% | 32.3% | 38.3% | – | 81.5% | 39.5% | 71.65% | –
3 | CCCNC(=O)c1cc(Oc2ccc(NC(=O)Nc3ccc(Cl)c(OC)c3)c(C(F)(F)F)c2)c2ccc(C(F)(F)F)cc2n1 [Compound 38] | 75.53% | 65.55% | 31.5% | – | 59.2% | 14.56% | – | – | – | 80.53% | 20.5% | 36.5% | – | 88.1% | 41.2% | 74.56% | –
4 | CNC(=O)c1cc(Oc2ccc(NC(=O)Nc3ccc(Cl)c(C(F)(F)F)c3)cc2)ccn1 [Sorafenib, reference compound] | 72.66% | 55.60% | – | 0.71 ± 0.30 g | – | 22.61% | 2.36 ± 0.57 | 133 ± 33 | 308 ± 86 | 62.32% | – | – | – | 85.7% | – | 54.60% | Mortality of the animals [2]: no mortality; Tumor growth inhibition rate (%) (mice S180 sarcoma [4]; 60 mg/kg): 55.9%; Tumor growth inhibition rate (%) (mice S180 sarcoma [4]; listed as Sora, 60 mg/kg): 55.9%; Weight (g) d0 [6]: 19.9 ± 1.1 g; Weight (g) d13 [6]: 20.4 ± 1.4 g; Mortality of the animals [8]: no mortality; Mortality of the animals [9]: no mortality
5 | N-(4-chloro-3-(trifluoromethyl)phenyl)-N′-(4-(2-(N-methylaminoformoxyl)-4-(6-methoxyquinolinyl)oxy))phenyl)urea [Compound 1] | 60.22% | 72.22% | 33.7% | 0.99 ± 0.20 g | 38.5% | 9.20% | 2.81 ± 1.05 | 128 ± 34 | 359 ± 108 | 80.21% | 30.5% | 38.7% | 50.20% | 75.0% | – | – | Weight (g) Start (mice S180 sarcoma [4]; mouse body weight at start, 60 mg/kg ig): 18.7 ± 1.9 g; Weight (g) Final (mice S180 sarcoma [4]; mouse body weight final, 60 mg/kg ig for 9 days): 22.3 ± 1.3 g; Relative tumor reproduction rate T/C (%) ([6]; 60 mg/kg): 55.42%; Weight (g) d0 [6]: 19.5 ± 1.0 g; Weight (g) d13 [6]: 20.5 ± 1.1 g
6 | N-(4-chloro-3-(trifluoromethyl)phenyl)-N′-(4-(2-(N-methylaminoformoxyl)-4-(7 fluoroquinazolinyl)oxy)phenyl)urea [Compound 4] | 89.71% | 86.77% | 15.3% | – | 50.1% | 5.12% | – | – | – | 96.38% | 9.6% | 12.3% | 91.12% | 82.2% | 33.15% | – | –
7 | N-(4-chloro-3-(trifluoromethyl)phenyl)-N′-(4-(2-(N-methylaminoformoxyl)-4-(7-amino-isoquinolyl)oxy)phenyl)urea [Compound 10] | 64.57% | 50.34% | 28.1% | – | 55.2% | 14.50% | – | – | – | 61.43% | 27.1% | 30.1% | 74.50% | 3.5% | 78.9% | – | –
8 | N-(4-fluoro-3-(trifluoromethyl)phenyl)-N′-(4-(4-(2-methyl-pyrryl)oxy)phenyl)urea [Compound 29] | 91.40% | 86.43% | 16.2% | – | 14.2% | 21.40% | – | – | – | 61.44% | 12.8% | 14.7% | – | 85.3% | 78.3% | 86.42% | –
